Measured values: US20230406885A1, “CYCLIC PEPTIDES FOR TRAPPING INTERLEUKIN-1 BETA” (MERCK SHARP & DOHME LLC, priority 2022, published 2023)
*1 amine or outer side, *2 acyl side, *3 side chain or, on linkers, in order; H or OH if unused. Where a SMILES comes first, the peptide text is derived from it. [ ]: non-standard residue; d: D form. Phe(4-(4-Ac-piperazinyl)) = CC(=O)N1CCN(c2ccc(C[C@H](N)C(=O)O)cc2)CC1; Trp(4-Cl)(βS-Me) = C[C@@H](c1c[nH]c2cccc(Cl)c12)[C@H](N)C(=O)O; Bip(4'-COOH) = N[C@@H](Cc1ccc(-c2ccc(C(=O)O)cc2)cc1)C(=O)O; X3 = CC(=O)N1CCN(c2ncc(C[C@H](N[*:1])C(=O)[*:2])cn2)CC1; 1Nal(3S-Me) = C[C@@H](c1cccc2ccccc12)[C@H](N)C(=O)O; Ala(indazol-1-yl) = N[C@@H](Cn1ncc2ccccc21)C(=O)O; Ala(indolin-1-yl) = N[C@@H](CN1CCc2ccccc21)C(=O)O; hPhe(4-CF3) = N[C@@H](CCc1ccc(C(F)(F)F)cc1)C(=O)O; Phe(4-COOH) = N[C@@H](Cc1ccc(C(=O)O)cc1)C(=O)O; h3Pal(5-CN) = N#Cc1cncc(CC[C@H](N)C(=O)O)c1; Pro(4R-NH2) = N[C@H]1CN[C@H](C(=O)O)C1; 1Nal = N[C@@H](Cc1cccc2ccccc12)C(=O)O; AEF = NCCOc1ccc(C[C@H](N)C(=O)O)cc1; hTyr = N[C@@H](CCc1ccc(O)cc1)C(=O)O; 4Pal = N[C@@H](Cc1ccncc1)C(=O)O; dDab = NCC[C@@H](N)C(=O)O; Orn = NCCC[C@H](N)C(=O)O; dNMeA = CN[C@H](C)C(=O)O; Dab = NCC[C@H](N)C(=O)O; Nva = CCC[C@H](N)C(=O)O; Dap = NC[C@H](N)C(=O)O; Aib = CC(C)(N)C(=O)O

The compounds below were run against T1, Recombinant human IL-1β (Homo sapiens, UniProt P01584) (assay: IL-6 assay in MRC5 cells: inhibition of IL-1β induced IL-6 secretion (AlphaLISA)). Details: inhibition of IL-1β induced IL-6 secretion in MRC5 cells; IL-1β pre-incubated 1 hour with compound; read-out: MRC5 IC50.
T1 construct: purchased BioLegend 579404
T1 sequence (P01584 117-269): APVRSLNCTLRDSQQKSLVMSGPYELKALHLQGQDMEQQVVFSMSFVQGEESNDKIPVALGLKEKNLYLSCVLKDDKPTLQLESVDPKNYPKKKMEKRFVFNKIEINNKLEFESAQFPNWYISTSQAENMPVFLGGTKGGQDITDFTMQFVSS
Assay type: cell-based
Method in brief: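 IL-1β at 2×EC80 in seeding medium (EMEM, 0.025% BSA) preincubated 1 h at ambient temperature with compound, then 3000 MRC5 cells/well added and incubated overnight at 37 °C, 5% CO2. IL-6 in conditioned medium quantified by AlphaLISA; IC50 from 4-parameter logistic fit.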

SMILES | IC50
CC(=O)N1CCN(c2ccc(C[C@@H]3NC(=O)[C@H](CCc4ccc(O)cc4)NC(=O)[C@@H](CCN)NC(=O)CNC(=O)[C@H](Cc4c[nH]c5ccccc45)NC(=O)[C@H](Cc4ccc(-c5ccc(C(=O)O)cc5)cc4)NC(=O)CNC(=O)[C@@H](C)N(C)C(=O)[C@H](CC(=O)O)NC(=O)[C@H]([C@@H](C)c4c[nH]c5cccc(Cl)c45)NC(=O)[C@@H]4C[C@@H](N)CN4C(=O)CNC(=O)[C@H](Cc4ccc(C(=O)O)cc4)NC(=O)[C@H](Cc4c[nH]c5ccccc45)NC3=O)cc2)CC1 [Example 85] (cyclo([Phe(4-(4-Ac-piperazinyl))]W[Phe(4-COOH)]G[Pro(4R-NH2)][Trp(4-Cl)(βS-Me)]D[dNMeA]G[Bip(4'-COOH)]WG[dDab][hTyr])) | 0.0543 nM
CC(=O)N1CCN(c2ncc(C[C@@H]3NC(=O)[C@H](CCc4ccc(O)cc4)NC(=O)[C@@H](C)NC(=O)[C@H](CN)NC(=O)[C@H](Cc4c[nH]c5ccccc45)NC(=O)[C@H](Cc4ccc(-c5ccc(C(=O)O)cc5)cc4)NC(=O)CNC(=O)[C@@H](C)N(C)C(=O)[C@H](CC(=O)O)NC(=O)[C@H]([C@@H](C)c4cccc5ccccc45)NC(=O)[C@@H]4C[C@@H](N)CN4C(=O)CNC(=O)[C@H](Cc4ccc(C(=O)O)cc4)NC(=O)[C@H](Cc4c[nH]c5ccccc45)NC3=O)cn2)CC1 [Example 88] (cyclo([X3]W[Phe(4-COOH)]G[Pro(4R-NH2)][1Nal(3S-Me)]D[dNMeA]G[Bip(4'-COOH)]W[Dap][dA][hTyr])) | 0.0945 nM
CC(=O)NCCOc1ccc(C[C@@H]2NC(=O)[C@H](CCc3ccc(O)cc3)NC(=O)[C@@H](C)NC(=O)[C@H](CN)NC(=O)[C@H](Cc3c[nH]c4ccccc34)NC(=O)[C@H](Cc3ccc(-c4ccc(C(=O)O)cc4)cc3)NC(=O)CNC(=O)[C@@H](C)N(C)C(=O)[C@H](C)NC(=O)[C@H]([C@@H](C)c3cccc4ccccc34)NC(=O)[C@@H]3C[C@@H](N)CN3C(=O)CNC(=O)[C@H](Cc3ccc(C(=O)O)cc3)NC(=O)[C@H](Cc3c[nH]c4ccccc34)NC2=O)cc1 [Example 89] (cyclo([AEF](Ac)W[Phe(4-COOH)]G[Pro(4R-NH2)][1Nal(3S-Me)]A[dNMeA]G[Bip(4'-COOH)]W[Dap][dA][hTyr])) | 0.271 nM
CC(=O)NCCOc1ccc(C[C@@H]2NC(=O)[C@H](CCc3cncc(C#N)c3)NC(=O)[C@@H](CCN)NC(=O)CNC(=O)[C@H](Cn3ncc4ccccc43)NC(=O)[C@H](Cc3ccc(-c4ccc(C(=O)O)cc4)cc3)NC(=O)CNC(=O)[C@@H](C)N(C)C(=O)[C@H](CC(=O)O)NC(=O)[C@H]([C@@H](C)c3cccc4ccccc34)NC(=O)[C@@H]3C[C@@H](N)CN3C(=O)CNC(=O)[C@H](Cc3ccc(C(=O)O)cc3)NC(=O)[C@H](Cc3c[nH]c4ccccc34)NC2=O)cc1 [Example 90] (cyclo([AEF](Ac)W[Phe(4-COOH)]G[Pro(4R-NH2)][1Nal(3S-Me)]D[dNMeA]G[Bip(4'-COOH)][Ala(indazol-1-yl)]G[dDab][h3Pal(5-CN)])) | 0.0507 nM
CC(=O)NCCOc1ccc(C[C@@H]2NC(=O)[C@H](CCc3cncc(C#N)c3)NC(=O)[C@@H](CCN)NC(=O)CNC(=O)[C@H](CN3CCc4ccccc43)NC(=O)[C@H](Cc3ccc(-c4ccc(C(=O)O)cc4)cc3)NC(=O)CNC(=O)[C@@H](C)N(C)C(=O)[C@H](CC(=O)O)NC(=O)[C@H]([C@@H](C)c3cccc4ccccc34)NC(=O)[C@@H]3C[C@@H](N)CN3C(=O)CNC(=O)[C@H](Cc3ccc(C(=O)O)cc3)NC(=O)[C@H](Cc3c[nH]c4ccccc34)NC2=O)cc1 [Example 91] (cyclo([AEF](Ac)W[Phe(4-COOH)]G[Pro(4R-NH2)][1Nal(3S-Me)]D[dNMeA]G[Bip(4'-COOH)][Ala(indolin-1-yl)]G[dDab][h3Pal(5-CN)])) | 0.0234 nM
CC(=O)NCCOc1ccc(C[C@@H]2NC(=O)CNC(=O)C(C)(C)NC(=O)[C@H](CCN)NC(=O)[C@H](Cc3cccc4ccccc34)NC(=O)[C@H](Cc3ccc(-c4ccc(C(=O)O)cc4)cc3)NC(=O)CNC(=O)[C@@H](C)N(C)C(=O)[C@H](CC(=O)O)NC(=O)[C@H]([C@@H](C)c3cccc4ccccc34)NC(=O)[C@@H]3C[C@@H](N)CN3C(=O)CNC(=O)[C@H](Cc3ccc(C(=O)O)cc3)NC(=O)[C@H](Cc3c[nH]c4ccccc34)NC2=O)cc1 [Example 92] (cyclo([AEF](Ac)W[Phe(4-COOH)]G[Pro(4R-NH2)][1Nal(3S-Me)]D[dNMeA]G[Bip(4'-COOH)][1Nal][Dab][Aib]G)) | 0.457 nM
CC(=O)NCCOc1ccc(C[C@@H]2NC(=O)[C@H](CCc3ccc(O)cc3)NC(=O)C(C)(C)NC(=O)[C@H](CCN)NC(=O)[C@H](Cc3cccc4ccccc34)NC(=O)[C@H](Cc3ccc(-c4ccc(C(=O)O)cc4)cc3)NC(=O)CNC(=O)[C@@H](C)N(C)C(=O)[C@H](CC(=O)O)NC(=O)[C@H]([C@@H](C)c3cccc4ccccc34)NC(=O)[C@@H]3C[C@@H](N)CN3C(=O)CNC(=O)[C@H](Cc3ccc(C(=O)O)cc3)NC(=O)[C@H](Cc3c[nH]c4ccccc34)NC2=O)cc1 [Example 93] (cyclo([AEF](Ac)W[Phe(4-COOH)]G[Pro(4R-NH2)][1Nal(3S-Me)]D[dNMeA]G[Bip(4'-COOH)][1Nal][Dab][Aib][hTyr])) | 0.12 nM
CC(=O)NCCOc1ccc(C[C@@H]2NC(=O)[C@H](CCc3cncc(C#N)c3)NC(=O)C(C)(C)NC(=O)[C@H](CN)NC(=O)[C@H](Cc3cccc4ccccc34)NC(=O)[C@H](Cc3ccc(-c4ccc(C(=O)O)cc4)cc3)NC(=O)CNC(=O)[C@@H](C)N(C)C(=O)[C@H](CC(=O)O)NC(=O)[C@H]([C@@H](C)c3cccc4ccccc34)NC(=O)[C@@H]3C[C@@H](N)CN3C(=O)CNC(=O)[C@H](Cc3ccc(C(=O)O)cc3)NC(=O)[C@H](Cc3c[nH]c4ccccc34)NC2=O)cc1 [Example 94] (cyclo([AEF](Ac)W[Phe(4-COOH)]G[Pro(4R-NH2)][1Nal(3S-Me)]D[dNMeA]G[Bip(4'-COOH)][1Nal][Dap][Aib][h3Pal(5-CN)])) | 0.0639 nM
CC(=O)NCCOc1ccc(C[C@@H]2NC(=O)CNC(=O)C(C)(C)NC(=O)[C@H](CC(C)C)NC(=O)[C@H](Cc3cccc4ccccc34)NC(=O)[C@H](Cc3ccc(-c4ccc(C(=O)O)cc4)cc3)NC(=O)CNC(=O)[C@@H](C)N(C)C(=O)[C@H](CC(=O)O)NC(=O)[C@H]([C@@H](C)c3cccc4ccccc34)NC(=O)[C@@H]3C[C@@H](N)CN3C(=O)CNC(=O)[C@H](Cc3ccc(C(=O)O)cc3)NC(=O)[C@H](Cc3c[nH]c4ccccc34)NC2=O)cc1 [Example 95] (cyclo([AEF](Ac)W[Phe(4-COOH)]G[Pro(4R-NH2)][1Nal(3S-Me)]D[dNMeA]G[Bip(4'-COOH)][1Nal]L[Aib]G)) | 0.422 nM
CC(=O)NCCOc1ccc(C[C@@H]2NC(=O)[C@H](C)NC(=O)[C@@H](C)NC(=O)[C@H](CC(C)C)NC(=O)[C@H](Cc3cccc4ccccc34)NC(=O)[C@H](Cc3ccc(-c4ccc(C(=O)O)cc4)cc3)NC(=O)CNC(=O)[C@@H](C)N(C)C(=O)[C@H](CC(=O)O)NC(=O)[C@H]([C@@H](C)c3cccc4ccccc34)NC(=O)[C@@H]3C[C@@H](N)CN3C(=O)CNC(=O)[C@H](Cc3ccc(C(=O)O)cc3)NC(=O)[C@H](Cc3c[nH]c4ccccc34)NC2=O)cc1 [Example 97] (cyclo([AEF](Ac)W[Phe(4-COOH)]G[Pro(4R-NH2)][1Nal(3S-Me)]D[dNMeA]G[Bip(4'-COOH)][1Nal]L[dA]A)) | 0.295 nM
CCC[C@@H]1NC(=O)[C@H](Cc2cccc3ccccc23)NC(=O)[C@H](Cc2ccc(-c3ccc(C(=O)O)cc3)cc2)NC(=O)CNC(=O)[C@@H](C)N(C)C(=O)[C@H](CC(=O)O)NC(=O)[C@H]([C@@H](C)c2cccc3ccccc23)NC(=O)[C@@H]2C[C@@H](N)CN2C(=O)CNC(=O)[C@H](Cc2ccc(C(=O)O)cc2)NC(=O)[C@H](Cc2c[nH]c3ccccc23)NC(=O)[C@H](Cc2ccc(OCCNC(C)=O)cc2)NC(=O)[C@H](C)NC(=O)[C@@H](C)NC1=O [Example 98] (cyclo([AEF](Ac)W[Phe(4-COOH)]G[Pro(4R-NH2)][1Nal(3S-Me)]D[dNMeA]G[Bip(4'-COOH)][1Nal][Nva][dA]A)) | 0.494 nM
CC(=O)NCCOc1ccc(C[C@@H]2NC(=O)[C@H](CCc3ccc(O)cc3)NC(=O)C(C)(C)NC(=O)[C@H](CCCN)NC(=O)[C@H](Cc3cccc4ccccc34)NC(=O)[C@H](Cc3ccc(-c4ccc(C(=O)O)cc4)cc3)NC(=O)CNC(=O)[C@@H](C)N(C)C(=O)[C@H](CC(=O)O)NC(=O)[C@H]([C@@H](C)c3cccc4ccccc34)NC(=O)[C@@H]3C[C@@H](N)CN3C(=O)CNC(=O)[C@H](Cc3ccc(C(=O)O)cc3)NC(=O)[C@H](Cc3c[nH]c4ccccc34)NC2=O)cc1 [Example 99] (cyclo([AEF](Ac)W[Phe(4-COOH)]G[Pro(4R-NH2)][1Nal(3S-Me)]D[dNMeA]G[Bip(4'-COOH)][1Nal][Orn][Aib][hTyr])) | 0.256 nM
CC(=O)NCCOc1ccc(C[C@@H]2NC(=O)[C@H](CCc3ccc(C(F)(F)F)cc3)NC(=O)[C@@H](C)NC(=O)[C@H](CCN)NC(=O)[C@H](Cc3ccncc3)NC(=O)[C@H](Cc3ccc(-c4ccc(C(=O)O)cc4)cc3)NC(=O)CNC(=O)[C@@H](C)N(C)C(=O)[C@H](CC(=O)O)NC(=O)[C@H]([C@@H](C)c3cccc4ccccc34)NC(=O)[C@@H]3C[C@@H](N)CN3C(=O)CNC(=O)[C@H](Cc3ccc(C(=O)O)cc3)NC(=O)[C@H](Cc3c[nH]c4ccccc34)NC2=O)cc1 [Example 100] (cyclo([AEF](Ac)W[Phe(4-COOH)]G[Pro(4R-NH2)][1Nal(3S-Me)]D[dNMeA]G[Bip(4'-COOH)][4Pal][Dab][dA][hPhe(4-CF3)])) | 0.274 nM
CC(=O)NCCOc1ccc(C[C@@H]2NC(=O)[C@H](CCc3ccc(O)cc3)NC(=O)[C@@H](C)NC(=O)[C@H](CCN)NC(=O)[C@H](Cc3ccncc3)NC(=O)[C@H](Cc3ccc(-c4ccc(C(=O)O)cc4)cc3)NC(=O)CNC(=O)[C@@H](C)N(C)C(=O)[C@H](CC(=O)O)NC(=O)[C@H]([C@@H](C)c3cccc4ccccc34)NC(=O)[C@@H]3C[C@@H](N)CN3C(=O)CNC(=O)[C@H](Cc3ccc(C(=O)O)cc3)NC(=O)[C@H](Cc3c[nH]c4ccccc34)NC2=O)cc1 [Example 101] (cyclo([AEF](Ac)W[Phe(4-COOH)]G[Pro(4R-NH2)][1Nal(3S-Me)]D[dNMeA]G[Bip(4'-COOH)][4Pal][Dab][dA][hTyr])) | 0.247 nM
